The results in this text go back to US10450300B2, “Wnt signaling pathway inhibitors and therapeutic applications thereof” (Suzhou Yunxuan Yiyao Keji Youxian Gongsi, priority 2015, dated 2019).

One may read the IC50 as the concentration that inhibits the measured activity by half.

For the assay, the system named is Wnt pathway. The assay is described as follows: Wnt pathway Super-top flash (STF) reporter gene assay (primary assay). The assay is classed as cell-based. To be noted: HEK293 STF cells co-cultured 1:1 with L Wnt3A cells; 48 h incubation; inhibition of luminescence signaling. As for the experimental part: The primary assay is based on Wnt pathway Super-top flash (STF) reporter gene assay:
HEK293 STF stable clones (HEK293 cells stably transfected with “Super-Top Flash” TCF-luciferase reporter plasmid) were kept in complete culture medium (DMEM with 4 mM L-Gln, 1.5 g/L sodium bicarbonate and 4.5 g/L glucose containing 6 μg/mL Blasticidin and 10% FBS). L Wnt3A cells (CRL-2647, ATCC) were kept in DMEM (Gibico) containing 10% FBS (Hyclone). HEK293 STF and L Wnt3A cells were harvested when 90% confluence and cell suspension was mixed with a fixed ratio of 1:1 (HEK293 STF: L Wnt3A). 100 μL/well of mixed cells suspension was added to the 96-well-plate with final cell concentration of 12,000 cells/well and then cultured for an additional 24 hours before adding compounds.
Compounds were diluted in DMSO in sequence and then diluted with DMEM medium. 20 μL medium containing compound was added to the cells according to the pre-setting dose. Cell plates were incubated at 37° C. for an additional 48 hours.
50 μL luciferase solution (Bright-Glo, Promega) was added to each well […] the 48 h incubation. The plates were incubated at room temperature for 5 min under gentle shaking. Luminescence signaling was measured with a plate reader (PHERAstar FS, BMG). The IC50 (potency) of compounds was calculated based on the inhibition of luminescence signaling.
(In general: A reporter such as luciferase makes a cellular process visible.)
Consider `Cc1cc(-c2ncc(CNc3nccc(-c4cncc(Cl)c4)c3F)cc2C#N)ccn1` [Compound A-130], for which the IC50 was 0.11 nM.
Consider `Cc1cc(-c2ncc(CNc3nccc(-c4cncc(C#N)c4)c3F)cc2C#N)ccn1` [Compound A-131], for which the IC50 stood at 1 nM.
Under `Cc1cncc(-c2ccnc(NCc3cnc(-c4ccnc(C)c4)c(C#N)c3)c2F)c1` [Compound A-132] stands 0.25 nM; under `Cc1cc(-c2ccc(CNc3cc(N4CCc5ccccc5C4)ncn3)cc2)ccn1` [Compound A-133], 34 nM.
Regarding `Cc1cc(-c2ccc(CNc3cc(-c4ccc5ccccc5c4)ncn3)cc2)ccn1` [Compound A-134], the IC50 came out at 24 nM.
Regarding `Cc1cc(-c2ccc(CNc3cc(Cl)nc(N4CCc5ccccc5C4)n3)cc2)ccn1` [Compound A-135], the IC50 was 3000 nM.
Regarding `Cc1cc(-c2ccc(CNc3cc(N4CCCC4)nc(N4CCc5ccccc5C4)n3)cc2)ccn1` [Compound A-136], the IC50 amounted to 4000 nM.
`CSc1ncc2c(n1)CCN(c1cc(NCc3ccc(-c4ccnc(C)c4)cc3)ncn1)C2=O` [Compound A-137, 6-(6-(4-(2-methylpyridin-4-yl)benzylamino)pyrimidin-4-yl)-2-(methylthio)-7,8-dihydropyrido[4,3-d]pyrimidin-5(6H)-one]: the IC50 turned out to be 3000 nM.
With `CNc1ncc2c(n1)CCN(c1cc(NCc3ccc(-c4ccnc(C)c4)cc3)ncn1)C2=O` [Compound A-138, 2-(methylamino)-6-(6-(4-(2-methylpyridin-4-yl)benzylamino)pyrimidin-4-yl)-7,8-dihydropyrido[4,3-d]pyrimidin-5(6H)-one], the IC50 came out at 712 nM.
For `Cc1cc(-c2ccc(CNc3cc(-c4ccc5ccccc5c4)nc(C)n3)cc2)ccn1` [Compound A-139], the IC50 worked out at 3000 nM.
As for `CSc1nc(NCc2ccc(-c3ccnc(C)c3)cc2)cc(-c2ccc3ccccc3c2)n1` [Compound A-140], the half-maximal inhibitory concentration (IC50) amounted to 3000 nM.
For the compound `Cc1cc(-c2ccc(CNc3cc(-c4ccc5ccccc5c4)nc(N4CCCC4)n3)cc2)ccn1` [Compound A-141], the IC50 was 3000 nM.
Under `CCNc1nc(NCc2ccc(-c3ccnc(C)c3)cc2)cc(-c2ccc3ccccc3c2)n1` [Compound A-142] stands 3000 nM; under `Cc1cc(-c2ccc(CNc3ncnc(-c4ccc5ccccc5c4)c3C)cc2)ccn1` [Compound A-143], 2000 nM; under `Cc1cc(-c2ccc(CNc3ncnc(-c4ccc5ccccc5c4)c3C#N)cc2)ccn1` [Compound A-144], 40 nM.
Take `Cc1cc(-c2ccc(CNc3cc(N4CCc5ccccc5C4=O)ncn3)cc2)ccn1` [Compound A-145]: the IC50 turned out to be 1130 nM.
The same measure for `c1ccc2cc(-c3cc(NCc4ccc(-c5ccncc5)cc4)ncn3)ccc2c1` [Compound A-146]: 68 nM; for `Cc1cc(-c2ccc(C(C)Nc3cc(-c4ccc5ccccc5c4)ncn3)cc2)ccn1` (centres unmarked) [Compound A-147]: 40 nM.
Regarding `Cc1cc(-c2ccc(CNc3cc(-c4ccc5cnccc5c4)ncn3)cc2)ccn1` [Compound A-148], the IC50 came out at 10 nM.
For `Cc1cc(-c2ccc(CNc3cccc(-c4ccc5ccccc5c4)c3)cc2)ccn1` [Compound A-149], the IC50 came to 603 nM.
For the compound `Cc1cc(-c2ccc(CNc3cccc(-c4ccc5ccccc5c4)n3)cc2)ccn1` [Compound A-150], the 50% inhibitory concentration (IC50) amounted to 250 nM.
`Cc1cc(-c2ccc(CNc3ccnc(-c4ccc5ccccc5c4)n3)cc2)ccn1` [Compound A-151]: the IC50 was found to be 2000 nM.
The same measure for `Cc1cc(-c2ccc(CNc3nccc(-c4ccc5ccccc5c4)n3)cc2)ccn1` [Compound A-152]: 4.9 nM; for `Cc1cc(-c2ccc(CNc3cc(-c4ccc5ccccc5c4)nc(N)n3)cc2)ccn1` [Compound A-153]: 3000 nM; for `Cc1cc(-c2ccc(CNc3nccc(-c4ccc5ncccc5c4)n3)cc2)ccn1` [Compound A-154]: 1.2 nM.
`Cc1cc(-c2ccc(CNc3nccc(N4CCc5ccccc5C4)n3)cc2)ccn1` [Compound A-155]: the IC50 stood at 229 nM.
